The target in one experiment is Cytochrome P450 2D6 (Homo sapiens, UniProt P10635).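 Note: CYP2D6 member of a cytochrome P450 panel assay.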
The nature of the next experiment: cells. Format: functional.
For experiment [1], the target named is T1, Corticotropin-releasing factor receptor 2/Corticotropin-releasing factor-binding protein (Homo sapiens, UniProt P24387+Q13324).
T1 sequence (Q13324 whole entry): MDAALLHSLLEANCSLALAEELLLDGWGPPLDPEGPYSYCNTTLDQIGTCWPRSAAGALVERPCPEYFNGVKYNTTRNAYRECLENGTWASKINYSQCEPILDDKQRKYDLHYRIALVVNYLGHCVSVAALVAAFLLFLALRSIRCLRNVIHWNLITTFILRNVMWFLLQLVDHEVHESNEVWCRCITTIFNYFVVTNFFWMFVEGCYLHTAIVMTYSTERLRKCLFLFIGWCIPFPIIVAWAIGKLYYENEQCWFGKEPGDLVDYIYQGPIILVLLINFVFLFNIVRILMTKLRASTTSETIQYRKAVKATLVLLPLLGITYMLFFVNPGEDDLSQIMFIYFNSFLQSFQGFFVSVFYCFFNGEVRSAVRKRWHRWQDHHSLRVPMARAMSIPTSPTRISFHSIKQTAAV
T1 sequence (P24387 whole entry): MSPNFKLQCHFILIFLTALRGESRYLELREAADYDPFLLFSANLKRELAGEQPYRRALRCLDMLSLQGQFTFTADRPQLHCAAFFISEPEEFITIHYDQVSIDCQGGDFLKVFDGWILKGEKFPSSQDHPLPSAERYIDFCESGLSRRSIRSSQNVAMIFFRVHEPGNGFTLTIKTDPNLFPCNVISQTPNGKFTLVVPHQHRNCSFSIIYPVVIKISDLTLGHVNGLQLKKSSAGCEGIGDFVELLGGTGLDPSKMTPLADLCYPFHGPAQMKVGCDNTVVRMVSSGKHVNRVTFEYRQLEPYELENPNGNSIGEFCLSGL
Nature of the experiment: activators of CRF receptor 2 with binding protein – uHTS hits, confirmation (AID 602473). It counts as functional. As to conditions: read-out: EC50_Mean.

The nature of experiment [2]: Luminescence Cell-Based Dose Retest to Confirm Inhibitors of Cancer Stem Cells. [Related pubchem assays (depositor defined):AID2717, AID2721]. It counts as functional. As to conditions: Homo sapiens.
The target of a further experiment is Cytochrome P450 2C19 (Homo sapiens, UniProt P33261). Description: Cytochrome panel assay with activity outcomes. Panel member name: p450-cyp2c19 Compounds with AC50 equal or less than 10 uM are considered active. It counts as functional. As to conditions: read-out: AC50.
In experiment [3] the test system is BJ. Description: cells. Format: functional, cell-based. As to conditions: Homo sapiens.
The subject of experiment [4] is BJ. Nature of the experiment: BJ-TERT fibroblast viability loss – cell-based, RAS-independent, luminescence, dose response (AID 1933). Format: functional. As to conditions: Homo sapiens.
Experiment [5] is described as follows: DRD fibroblast viability loss – cell-based, non-viral oncogenic, luminescence, dose response (AID 1934). It counts as functional. As to conditions: Homo sapiens.
The test system of experiment [6] is BJ. Description: BJ-TERT-LT-ST fibroblast viability loss – cell-based, RAS-independent, luminescence, dose response (AID 1935).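 Note: BJ fibroblasts immortalized with TERT plus LT and ST oncogenes.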 Format: functional. As to conditions: Homo sapiens.
The nature of experiment [7]: alpha-synuclein stem-loop luciferase translation blockers – H4 neuroglioma cells, luminescence, confirmation (AID 1988). It counts as functional, cell-based.
Experiment [8] can be described thus: luciferase reporter signal suppression in cells – H4 neuroglioma cells, luminescence, dose response (AID 1990). It counts as functional, cell-based.
The nature of experiment [9]: Luminescence Cell-Based Dose Response HTS to Identify Inhibitors of 5'UTR Stem-Loop Driven Prion Protein mRNA Translation in H4 Neuroglioblastoma Cells. [Related pubchem assays: 1827 (Project Summary), 1813 (Primary HTS)]. Format: functional.
A further experiment concerns H4. Description: Luminescence Cell-Based Dose Response HTS to Identify Activators of 5'UTR Stem-Loop Driven Prion Protein mRNA Translation in H4 Neuroglioblastoma Cells. [Related pubchem assays: 1829 (Project Summary), 1814 (Primary HTS)]. It counts as functional. As to conditions: Homo sapiens.
The nature of experiment [10]: Luminescence Cell-Based Dose Response HTS to Identify Activators of Luciferase Translation or Activity in H4 […] Cells. [Related pubchem assays: 1829 (Project Summary), 1814 (Primary HTS)]. Format: functional.
Experiment [11] deals with T2, Rac GTPase-activating protein 1 (Homo sapiens, UniProt Q9H0H5).
T2 sequence (Q9H0H5 whole entry): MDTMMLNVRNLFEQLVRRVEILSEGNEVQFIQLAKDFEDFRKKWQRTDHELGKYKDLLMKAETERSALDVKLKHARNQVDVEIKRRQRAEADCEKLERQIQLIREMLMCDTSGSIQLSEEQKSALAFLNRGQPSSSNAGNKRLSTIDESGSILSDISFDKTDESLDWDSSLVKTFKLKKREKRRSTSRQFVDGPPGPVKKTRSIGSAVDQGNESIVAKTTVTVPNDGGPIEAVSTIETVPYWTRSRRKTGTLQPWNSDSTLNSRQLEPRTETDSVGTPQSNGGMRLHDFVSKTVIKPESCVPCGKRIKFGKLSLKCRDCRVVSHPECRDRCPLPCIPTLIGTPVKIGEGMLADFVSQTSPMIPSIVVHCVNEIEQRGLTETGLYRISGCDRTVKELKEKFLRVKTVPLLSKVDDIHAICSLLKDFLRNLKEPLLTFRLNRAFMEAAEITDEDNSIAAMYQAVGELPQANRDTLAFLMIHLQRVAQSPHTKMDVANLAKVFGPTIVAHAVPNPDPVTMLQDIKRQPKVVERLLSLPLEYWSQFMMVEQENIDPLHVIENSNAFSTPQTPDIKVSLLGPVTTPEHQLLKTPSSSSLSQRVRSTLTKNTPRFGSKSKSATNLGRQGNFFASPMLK
Nature of the experiment: blockers of MgcRacGAP-driven Rac1 GTP hydrolysis – biochemical, ADP Hunter fluorescence, primary and confirmatory, confirmation (AID 624330). It counts as functional.

SMILES strings stand for the structures. The source made the active and inactive calls.

Chain of Cytochrome P450 2C19 (P33261 whole entry): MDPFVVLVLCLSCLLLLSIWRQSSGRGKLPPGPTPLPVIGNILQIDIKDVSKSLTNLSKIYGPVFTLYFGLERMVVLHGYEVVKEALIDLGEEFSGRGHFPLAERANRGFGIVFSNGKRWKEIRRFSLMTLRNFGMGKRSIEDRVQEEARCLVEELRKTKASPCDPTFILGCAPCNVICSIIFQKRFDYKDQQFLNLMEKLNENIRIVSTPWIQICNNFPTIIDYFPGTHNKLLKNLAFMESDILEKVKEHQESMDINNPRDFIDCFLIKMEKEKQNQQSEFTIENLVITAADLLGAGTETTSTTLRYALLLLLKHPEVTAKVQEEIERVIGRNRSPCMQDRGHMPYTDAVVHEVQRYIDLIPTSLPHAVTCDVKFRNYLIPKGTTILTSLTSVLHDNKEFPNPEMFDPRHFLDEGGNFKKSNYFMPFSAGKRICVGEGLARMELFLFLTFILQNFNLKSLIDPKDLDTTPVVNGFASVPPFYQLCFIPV
Chain of Cytochrome P450 2D6 (P10635 whole entry): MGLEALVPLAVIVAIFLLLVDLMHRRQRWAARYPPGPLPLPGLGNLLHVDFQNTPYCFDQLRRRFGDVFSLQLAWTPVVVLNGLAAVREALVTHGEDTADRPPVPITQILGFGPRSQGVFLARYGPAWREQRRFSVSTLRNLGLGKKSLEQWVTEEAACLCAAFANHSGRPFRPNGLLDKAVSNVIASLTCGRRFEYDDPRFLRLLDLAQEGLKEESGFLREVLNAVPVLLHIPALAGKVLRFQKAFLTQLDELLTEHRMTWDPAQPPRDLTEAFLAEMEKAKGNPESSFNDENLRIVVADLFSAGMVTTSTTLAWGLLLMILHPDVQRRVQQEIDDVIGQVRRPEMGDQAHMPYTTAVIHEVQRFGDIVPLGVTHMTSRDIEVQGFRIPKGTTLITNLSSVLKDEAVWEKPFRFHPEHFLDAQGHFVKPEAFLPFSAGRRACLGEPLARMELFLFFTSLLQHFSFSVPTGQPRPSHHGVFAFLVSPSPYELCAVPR

On to `CN1CCc2cccc(Cl)c2CC1`, for which the AC50 at Cytochrome P450 2D6 was 31.6 µM (inconclusive).

Take `Cc1ccc(OC(=O)c2ccc(Br)o2)cc1`: in the experiment “cells”, the IC50 is 18.5 µM (active).

As to `FC(F)(F)c1ccccc1-c1nc(NCCN2CCOCC2)c2ccccc2n1`, at Cytochrome P450 2D6, the AC50 was 31.6 µM (inconclusive).

`Cc1cc(C(=O)COc2cccc3cccnc23)c(C)n1C`: in the experiment “cells”, the IC50 is 6.66 µM (active). Moreover, the EC50 in [1] was > 53 µM (inactive).

Turning to `O=C(c1n[nH]c(=O)c2ccccc12)N1CCN(C2c3ccccc3-c3ccccc32)CC1`, the AC50 on Cytochrome P450 2D6 is 31.6 µM (inconclusive).

For `Cc1ccc(NC(=O)/C=C/c2ccc3c(c2)OCO3)nc1`, the AC50 in [2] is 1.08 µM (active).

As to `Cc1cnc(CNc2nc(-c3ccccc3C(F)(F)F)nc3ccccc23)cn1`, the AC50 is 25.1 µM (inconclusive) at Cytochrome P450 2D6 and 39.8 µM (inconclusive) at Cytochrome P450 2C19.

Consider `CN1CCN(CC(=O)Nc2ccc([N+](=O)[O-])cc2C(=O)c2ccccc2)CC1`, for which the EC50 (in the experiment with BJ [3]; with BJ [4]; in [5]; with BJ [6]) was > 150 µM (not active) in each case.

With `CN(C)S(=O)(=O)c1ccc(C(=O)Oc2ccccc2)cc1`, the IC50 in the experiment “cells” is 7.22 µM (active).

Regarding `CCOc1ccc(C2C(C(=O)O)c3ccccc3C(=O)N2CCN2CCOCC2)cc1` (stereo not given), the AC50 at Cytochrome P450 2D6 is 25.1 µM (inconclusive).

On to `CCc1nc(SCC(=O)NC2CC2)c2c(C)c(C)sc2n1`, for which the figures for the EC50 in experiment [7], in experiment [8] and in experiment [9] were > 120 µM (not active), 16.7 µM (active) and > 120 µM (not active), respectively.

`Cc1cc(C)nc(NC(=NC(=O)Nc2ccc(Cl)cc2)NCCc2c[nH]c3ccccc23)n1`: in experiment [2], the AC50 was 2.28 µM (active).

Take `CCOC(=O)C1CSC(CC(=O)Nc2ccc(Cl)c(Cl)c2)C(=O)N1` (stereo not given): the IC50 in the experiment “cells” was 36.2 µM (active).

As to `COc1ccccc1N1CCN(C(=O)c2ccc([N+](=O)[O-])s2)CC1`, the IC50 in the experiment “cells” was 46.4 µM (active).

For the molecule `Fc1ccc(Br)cc1C1C=C(c2ccc(Br)cc2)Nc2ncnn21` (stereo not given), the EC50 in experiment [1] was > 53 µM (inactive).

As for `COc1ccc(NN/C=C2/C(=O)NC(=O)N(c3ccc(C)c(C)c3)C2=O)cc1`, the EC50 in experiment [7] is > 120 µM (not active); in experiment [8], 15.2 µM (active); in experiment [9], > 120 µM (not active). In addition, in experiment [2], the AC50 is 0.716 µM (active).

With `COc1cccc(-c2cncnc2NCc2cccnc2)c1`, the AC50 at Cytochrome P450 2D6 is 20 µM (inconclusive).

Regarding `CCOC(=O)COc1ccc(C(=O)Nc2cccc(Cl)c2C)cc1`, in the experiment “cells”, the IC50 was 0.52 µM (active).

On to `O=C1NCCc2c1[nH]c1ccc([N+](=O)[O-])cc21`, for which the EC50 in experiment [7] was 16.3 µM (active); in experiment [8], 12.9 µM (active); in [9], 15.6 µM (active).

On to `CC(=O)c1cc2c(ccc3ccccc32)oc1=O`, for which the concentration for half-maximal inhibition (IC50) in the experiment “cells” was 15.4 µM (active).

For the molecule `Clc1ccccc1-c1nc(NCCN2CCOCC2)c2ccccc2n1`, the AC50 at Cytochrome P450 2D6 was 20 µM (inconclusive); at Cytochrome P450 2C19, 25.1 µM (inconclusive).

Turning to `CC(C)OCCCNc1nc2c(c(=O)n(Cc3ccccc3F)c(=O)n2C)n1C`, the EC50 in experiment [7] was > 120 µM (not active); in [8], 16.8 µM (active); in [9] it was > 120 µM (not active).

For `CCc1ccc(C(=O)COC(=O)c2ccc(Cl)nc2)cc1`, the IC50 in “cells” was > 50 µM (active).

Consider `COc1ccc2cc(-c3csc(-c4cccnc4)n3)ccc2c1`, for which the EC50 in the experiment on H4 was 22 µM (active); in experiment [10], 0.108 µM (inconclusive).

Regarding `CN(C)C(=O)c1ccc(-c2nccc(NCc3cccs3)n2)cc1`, the AC50 at Cytochrome P450 2D6 and at Cytochrome P450 2C19 was 20 µM (inconclusive) throughout.

Take `COc1ccc2sc(-c3ccc(N(C)C)cc3)c(C#Cc3cncn3C)c2c1`: the AC50 in experiment [2] is 1.11 µM (active).

In the case of `Cc1ccc(/C=C2/C(=O)ON=C2c2ccccc2)o1`, the EC50 with BJ [3] is 18.3 µM (active); in the experiment with BJ [4], 12.8 µM (active); in experiment [5], 12.2 µM (active); in the experiment with BJ [6], > 150 µM (inconclusive). The IC50 in [11] is 36.9 µM (active).

As for `O=C(Cn1cc([N+](=O)[O-])nc1[N+](=O)[O-])N1CCN(c2ccccc2)CC1`, the IC50 in “cells” was 7.01 µM (active).

Turning to `COc1ccc(-c2nc(CS(=O)(=O)CC(=O)NCCCc3ccccc3)c(C)o2)cc1`, the EC50 in experiment [7] was 14.5 µM (active); in experiment [8], > 120 µM (not active); in experiment [9], > 120 µM (not active).

As for `CC(C)c1ccc(C2C3=C(O)OCC3=Nc3cc4c(cc32)OCO4)cc1` (stereo not given), the EC50 in the experiment on BJ [3] is 5.49 µM (inconclusive); in the experiment with BJ [4], 0.746 µM (inconclusive); in [5], 0.88 µM (active); with BJ [6] it was 0.386 µM (inconclusive).

For `COc1ccccc1N1CCN(C(=O)CCc2nnc3ccc(N4CCC(C)CC4)nn23)CC1`, the values for the EC50 in experiment [7], in experiment [8] and in experiment [9] were 17.3 µM (active), 11.2 µM (active) and > 120 µM (not active), respectively.

With `CCOc1cccc(NC(=O)CSc2nc(C)c3c(c2C#N)CCCC3)c1`, the AC50 was 0.0794 µM (inconclusive) at Cytochrome P450 2D6 and 0.178 µM (inconclusive) at Cytochrome P450 2C19.

Consider `Cc1cc(C)c(NC(=O)CSCc2c(C)noc2C)c(C)c1`, for which the AC50 in [2] was > 195 µM (inactive).

Regarding `CCOC(=O)C1=C(C)N=C(C)/C(=C(/O)OCC)C1c1ccccc1/C=C/C(=O)OC(C)(C)C` (stereo not given), the AC50 in experiment [2] is 3.4 µM (active).

`COc1ccc(-c2c(-c3cc(OC)cc(OC)c3)n(C)c3ccc(-c4cc(F)cc(OC)c4)cc23)cc1`: the AC50 in experiment [2] was > 195 µM (inactive).

For `O=c1cc(-c2ccncc2)oc2c1ccc1ccccc12`, the half-inhibitory concentration (IC50) in “cells” is 17.9 µM (active).

In the case of `O=C(NCCc1ccccc1)c1cnc2ccccc2c1O`, the EC50 in experiment [1] is > 53 µM (inactive).

Take `COc1ccc(C(=O)O/N=C/c2c(C(F)(F)F)nn(C)c2SCc2ccccc2Cl)cc1`: the EC50 in [7] is 12 µM (active); in experiment [8], 17 µM (active); in experiment [9], 12.8 µM (active).

For `COC(=O)C1=C(C)N=C(C)/C(=C(/O)O[C@@H]2CCCN(Cc3ccccc3)C2)[C@@H]1c1cccc([N+](=O)[O-])c1`, the figures for the EC50 in [7], in [8] and in experiment [9] were 9.3 µM (active), 12 µM (active) and 14.6 µM (active), respectively.

For `Cc1cc(-c2ccc(/C=N/n3cnnc3)o2)c([N+](=O)[O-])cc1C`, at Cytochrome P450 2D6, the AC50 is 11.2 µM (inconclusive).

`Cc1nnc(S)n1/N=C/c1ccc(OCc2ccc(Cl)cc2Cl)cc1`: in “cells”, the IC50 is 43.8 µM (active).

For `O=C(O)[C@@H]1C[C@@H](C(=O)O)N1`, the AC50 at Cytochrome P450 2D6 is 39.8 µM (inconclusive).

The values above are taken from ChEMBL document CHEMBL1201862, “PubChem BioAssay data set” (2004).
